Experimental data reported in patent US20060211748A1, “Sulphydryl compounds in combination with sulpha compounds” (priority 2002, published 2006).

What was measured:
[1] = treatment of opportunistic infections associated with AIDS; cited from earlier work
[2] = test system: ^51Cr-labelled erythrocytes; assay: Half-life of 51Cr-labelled erythrocytes challenged in vitro with DDS N-hydroxylamine and re-introduced to autologous rats; assay type: in vivo; conditions: red cells incubated two hours with DDS N-hydroxylamine 0.05 to 0.5 millimolar with N-acetyl-L-cysteine 2 to 10 millimolar, reintroduced into autologous rat
Procedure: Blood is drawn from laboratory rats into heparinized tubes, washed using conventional methods, and resuspended in buffered saline solution. Red blood cells are labeled with ^51Cr as chromate using the CPD standard method known to those skilled in the art. After resuspension in isotonic saline, DDS N-hydroxylamine alone (control) or with N-acetyl-L-cysteine (treatment) are added at final concentrations of 0.05 to 0.5 millimolar and 2 millimolar to 10 millimolar, respectively, and incubated for two hours. A 0.5 milliliter sample of the washed and resuspended red blood cells is then reintroduced into the autologous animal. Half-life of the labeled erythrocytes is determined by blood sampling every two days and counting of radioactive decay in the sample using a gamma counter.

Half-life of ^51Cr-labelled erythrocytes [2]	SMILES	Discontinuation of clinical use due to toxicity [1]
–	Nc1ccc(S(=O)(=O)c2ccc(N)cc2)cc1 [DDS, 4,4′-diaminodiphenylsulphone]	about 25 % of patients
able to preserve the normal half-life	CC(=O)N[C@@H](CS)C(=O)O [N-acetyl-L-cysteine]	–
